According to US10167262B2, “Herbicidal substituted 3-arylpyrazoles” (FMC CORPORATION, priority 2014, dated 2019):

Assays:
Format in all cases: in vivo
[1] = system: goosegrass (Eleusine indica); assay: Test C postemergence greenhouse test, plant response rating 0-100; details: for Plant response rating, Goosegrass: scale 0 to 100
How it was run: (§1)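 Postemergence spray of formulated test chemicals on plants 2 to 18 cm tall (1- to 4-leaf stage) grown in peat/vermiculite medium. Greenhouse hold 13 to 15 days, then visual comparison with untreated controls on a 0-100 scale (0 no effect, 100 complete control); dash means no test result.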

[2] = system: bermudagrass (Cynodon dactylon); assay: as above; details: for Plant response rating, Bermudagrass: scale 0 to 100
How it was run: as §1

[3] = system: lambsquarters (Chenopodium album); assay: Test C pre-/postemergence greenhouse test, plant response rating 0-100; details: Postemergence; for Plant response rating, Lambsquarters: scale 0 to 100
How it was run: (§2)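 Seeds were sown in a loam soil–sand blend and sprayed preemergence with test chemicals in a non-phytotoxic solvent mixture containing surfactant; postemergence plants in peat/vermiculite medium were treated at 2–18 cm (1- to 4-leaf stage). After 13 to 15 days in the greenhouse, injury was rated visually against untreated controls.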

[4] = system: Italian ryegrass (Lolium multiflorum); assay: as above; details: Postemergence; for Plant response rating, Ryegrass, Italian: scale 0 to 100
How it was run: as §2

[5] = system: ragweed (common ragweed, Ambrosia elatior); assay: as above; details: Postemergence; for Plant response rating, Ragweed: scale 0 to 100
How it was run: as §2

[6] = system: blackgrass (Alopecurus myosuroides); assay: as above; details: Postemergence; for Plant response rating, Blackgrass: scale 0 to 100
How it was run: as §2

[7] = system: galium (catchweed bedstraw, Galium aparine); assay: as above; details: Postemergence; for Plant response rating, Galium: scale 0 to 100
How it was run: as §2

[8] = system: pigweed (Amaranthus retroflexus); assay: as above; details: Postemergence
How it was run: as §2

[9] = system: large (Lg) crabgrass (Digitaria sanguinalis); assay: as above; details: Postemergence; for Plant response rating, Crabgrass, Large: scale 0 to 100
How it was run: as §2

[10] = system: velvetleaf (Abutilon theophrasti); assay: as above; details: Postemergence; for Plant response rating, Velvetleaf: scale 0 to 100
How it was run: as §2

[11] = system: yellow nutsedge (Cyperus esculentus); assay: as above; details: Postemergence; for Plant response rating, Nutsedge, Yellow: scale 0 to 100
How it was run: as §2

[12] = system: corn (Zea mays); assay: as above; details: Postemergence, 500 g ai/ha; scale 0 to 100
How it was run: as §2

[13] = system: morningglory (Ipomoea coccinea); assay: as above; details: Postemergence; for Plant response rating, Morningglory: scale 0 to 100
How it was run: as §2

[14] = system: soybean (Glycine max); assay: as above; details: Postemergence; for Plant response rating, Soybean: scale 0 to 100
How it was run: as §2

Compound: Cn1cc(C(=O)c2cccs2)c(-c2cc(Cl)cc(Cl)c2)n1 [Compound 17]
- Plant response rating (0 to 100), Goosegrass ([1]; 62 g ai/ha): 0
- Plant response rating (0 to 100), Goosegrass ([1]; 125 g ai/ha): 0
- Plant response rating, Goosegrass ([1]; 250 g ai/ha): 5
- Plant response rating, Goosegrass ([1]; 500 g ai/ha): 5
- Plant response rating (0 to 100), Bermudagrass ([2]; 62 g ai/ha): 0
- Plant response rating, Bermudagrass ([2]; 125 g ai/ha): 0
- Plant response rating, Bermudagrass ([2]; 250 g ai/ha): 0
- Plant response rating, Bermudagrass ([2]; 500 g ai/ha): 0
- Plant response rating (0 to 100), Lambsquarters ([3]; 62 g ai/ha): 15
- Plant response rating (0 to 100), Lambsquarters ([3]; 125 g ai/ha): 55
- Plant response rating, Lambsquarters ([3]; 250 g ai/ha): 80
- Plant response rating, Lambsquarters ([3]; 500 g ai/ha): 98
- Plant response rating (0 to 100), Ryegrass, Italian ([4]; 62 g ai/ha): 0
- Plant response rating (0 to 100), Ryegrass, Italian ([4]; 125 g ai/ha): 0
- Plant response rating, Ryegrass, Italian ([4]; 250 g ai/ha): 0
- Plant response rating, Ryegrass, Italian ([4]; 500 g ai/ha): 5
- Plant response rating (0 to 100), Ragweed ([5]; 62 g ai/ha): 0
- Plant response rating (0 to 100), Ragweed ([5]; 125 g ai/ha): 10
- Plant response rating, Ragweed ([5]; 250 g ai/ha): 10
- Plant response rating, Ragweed ([5]; 500 g ai/ha): 10
- Plant response rating (0 to 100), Blackgrass ([6]; 62 g ai/ha): 0
- Plant response rating, Blackgrass ([6]; 125 g ai/ha): 0
- Plant response rating, Blackgrass ([6]; 250 g ai/ha): 0
- Plant response rating, Blackgrass ([6]; 500 g ai/ha): 5
- Plant response rating (0 to 100), Galium ([7]; 62 g ai/ha): 0
- Plant response rating (0 to 100), Galium ([7]; 125 g ai/ha): 0
- Plant response rating, Galium ([7]; 250 g ai/ha): 0
- Plant response rating, Galium ([7]; 500 g ai/ha): 20
- Plant response rating (0 to 100), Pigweed ([8]; 62 g ai/ha): 75
- Plant response rating (0 to 100), Pigweed ([8]; 125 g ai/ha): 80
- Plant response rating, Pigweed ([8]; 500 g ai/ha, scale 0 to 100): 85
- Plant response rating (0 to 100), Crabgrass, Large ([9]; 62 g ai/ha): 0
- Plant response rating (0 to 100), Crabgrass, Large ([9]; 125 g ai/ha): 5
- Plant response rating, Crabgrass, Large ([9]; 250 g ai/ha): 10
- Plant response rating, Crabgrass, Large ([9]; 500 g ai/ha): 15
- Plant response rating (0 to 100), Velvetleaf ([10]; 62 g ai/ha): 80
- Plant response rating (0 to 100), Velvetleaf ([10]; 125 g ai/ha): 80
- Plant response rating, Velvetleaf ([10]; 250 g ai/ha): 80
- Plant response rating, Velvetleaf ([10]; 500 g ai/ha): 80
- Plant response rating (0 to 100), Nutsedge, Yellow ([11]; 62 g ai/ha): 0
- Plant response rating (0 to 100), Nutsedge, Yellow ([11]; 125 g ai/ha): 5
- Plant response rating, Nutsedge, Yellow ([11]; 250 g ai/ha): 5
- Plant response rating, Nutsedge, Yellow ([11]; 500 g ai/ha): 5
- Plant response rating, Corn [12]: 10
- Plant response rating (0 to 100), Morningglory ([13]; 62 g ai/ha): 5
- Plant response rating (0 to 100), Morningglory ([13]; 125 g ai/ha): 5
- Plant response rating, Morningglory ([13]; 250 g ai/ha): 10
- Plant response rating, Morningglory ([13]; 500 g ai/ha): 15
- Plant response rating (0 to 100), Soybean ([14]; 62 g ai/ha): 0
- Plant response rating (0 to 100), Soybean ([14]; 125 g ai/ha): 0
- Plant response rating, Soybean ([14]; 250 g ai/ha): 10
- Plant response rating, Soybean ([14]; 500 g ai/ha): 15
